The test relates to SKM MF. The test is described as follows: SKM MF AC1.4: ATPase screen of skeletal sarcomeric proteins with PK/LDH coupled enzyme system. Also noted: AC1.4 Median: unit not given here. The settings on record: for SKM MF AC1.4 (μM): median value (footnote †). Format: biochemical. How it is done:
For example, test compounds can be assayed in a highly parallel fashion by using multiwell plates by placing the compounds either individually in wells or testing them in mixtures. Assay components including the target protein complex, coupling enzymes and substrates, and ATP can then be added to the wells and the absorbance or fluorescence of each well of the plate can be measured with a plate reader.
In some embodiments, the method uses a 384 well plate format and a 25 μL reaction volume. A pyruvate kinase/lactate dehydrogenase coupled enzyme system (Huang T G and Hackney D D. (1994) J Biol Chem 269(23):16493-501) can be used to measure the rate of ATP hydrolysis in each well. As will be appreciated by those in the art, the assay components are added in buffers and reagents. The incubation periods can be optimized to give adequate detection signals over the background. The assay can be done in real time giving the kinetics of ATP hydrolysis which increases the signal to noise ratio of the assay.
Just prior to screening, the actin, tropomyosin, and troponin complex are mixed together in the desired ratio (e.g., 7:1:1) to achieve maximal calcium regulation of the actin filament. The screen is conducted at a pCa=6.5. This calcium concentration is in the physiological range during muscle contraction.
To measure the generation of ADP during the reaction, a pyruvate kinase/lactate dehydrogenase/NADH coupled enzyme system (PK/LDH) is added to the actin. The myosin is kept separately. The plates are read in real time so that kinetic curves are obtained. These compounds are in DMSO and were already spotted onto the bottoms of 384 well plates at 10 to 40 μg/ml final concentration.

Experimental findings from patent publication US7851484B2, “Certain chemical entities, compositions, and methods” (Cytokinetics, Inc., priority 2007, dated 2010) are described below.

For the molecule `CC(C)(Cc1ccccc1)n1c(O)nc2ncc(Cl)cc21` [1-(1,1-dimethyl-2-phenylethyl)-6-chloroimidazo[4,5-b]pyridin-2-ol], the “AC1.4 Median” value was 8.2080.

As for `CCC(CC)n1c(O)nc2nc(Br)c(Br)cc21` [5,6-dibromo-1-(ethylpropyl)imidazo[4,5-b]pyridin-2-ol], the “AC1.4 Median” value worked out at 9.8768.

Regarding `CC[C@@H](C)n1c(O)nc2ncc(Cl)cc21` [1-((1R)-1-methylpropyl)-6-chloroimidazo[4,5-b]pyridin-2-ol], the “AC1.4 Median” value worked out at 10.6839.

Regarding `CCC(C(C)C)n1c(O)nc2ncc(Cl)cc21` (centres unmarked) [6-chloro-1-(1-ethyl-2-methylpropyl)imidazo[4,5-b]pyridin-2-ol], the “AC1.4 Median” value turned out to be 10.7918.

For `CC[C@@H](c1ccccc1)n1c(O)nc2ncc(Cl)cc21` [1-((1S)-1-phenylpropyl)-6-chloroimidazo[4,5-b]pyridin-2-ol], the “AC1.4 Median” value amounted to 6.3763.

As to “1-(ethylpropyl)-6-(2-methylprop-1-enyl)imidazo[4,5-b]pyridin-2-ol”, the “AC1.4 Median” value is 35.3882.

As for `CC[C@H](CN1CCOCC1)n1c(O)nc2ncc(Cl)cc21` [1-[(1R)-1-(morpholin-4-ylmethyl)propyl]-6-chloroimidazo[4,5-b]pyridin-2-ol], the “AC1.4 Median” value was 15.2631.

`CCC(CC)n1c(O)nc2ncc(Cl)c(I)c21` [6-chloro-1-(ethylpropyl)-7-iodoimidazo[4,5-b]pyridin-2-ol]: the “AC1.4 Median” value is given as 1.1778.

Take `CC(C)(C)C(CO)n1c(O)nc2ncc(Cl)cc21` (centres unmarked) [1-[1-(tert-butyl)-2-hydroxyethyl]-6-chloroimidazo[4,5-b]pyridin-2-ol]: the “AC1.4 Median” value worked out at 48.1977.

Take “6-bromo-1-(ethylpropyl)-7-methylimidazo[4,5-b]pyridin-2-ol”: the “AC1.4 Median” value worked out at 2.2135.

For “1-(ethylpropyl)-6-ethynyl-7-methylimidazo[4,5-b]pyridin-2-ol”, the “AC1.4 Median” value is on record as 2.0265.

Regarding `CC[C@H](CCO)n1c(O)nc2ncc(Cl)cc21` [1-((1R)-1-ethyl-3-hydroxypropyl)-6-chloroimidazo[4,5-b]pyridin-2-ol], the “AC1.4 Median” value was 7.7806.

Regarding “1-(ethylpropyl)-6-(3-thienyl)imidazo[4,5-b]pyridin-2-ol”, the “AC1.4 Median” value worked out at 22.3369.

As to `CCCC(CCC)n1c(O)nc2ncc(Cl)cc21` [6-chloro-1-(propylbutyl)imidazo[4,5-b]pyridin-2-ol], the “AC1.4 Median” value came out at 3.7477.

Regarding “1-(ethylpropyl)-6-methoxyimidazo[4,5-b]pyridin-2-ol”, the “AC1.4 Median” value came out at 24.0256.

Regarding `C=CCn1c(O)nc2ncc(Cl)c(I)c21` [6-chloro-7-iodo-1-prop-2-enylimidazo[4,5-b]pyridin-2-ol], the “AC1.4 Median” value is recorded as 23.0211.

For “6-((1Z)prop-1-enyl)-1-(ethylpropyl)imidazo[4,5-b]pyridin-2-ol”, the “AC1.4 Median” value is 3.5145.

As to `C=CCc1c(Cl)cnc2nc(O)n(C(CC)CC)c12` [6-chloro-1-(ethylpropyl)-7-prop-2-enylimidazo[4,5-b]pyridin-2-ol], the “AC1.4 Median” value turned out to be 3.6218.

Take `CCOC(=O)CSSCc1c(Cl)cnc2nc(O)n(C(CC)CC)c12` [ethyl 2-({[6-chloro-1-(ethylpropyl)-2-hydroxyimidazo[4,5-b]pyridin-7-yl]methyl}disulfanyl)acetate]: the “AC1.4 Median” value was 11.7273.

`CCC(CC)n1c(O)nc2ncc(C)cc21` [6-methyl-1-(pentan-3-yl)-1H-imidazo[4,5-b]pyridin-2-ol]: the “SKM MF AC1.4” value amounted to 5.7 µM and the “AC1.4 Median” value is reported as 10.2517.

Consider `CC[C@@H](CCO)n1c(O)nc2ncc(Cl)c(I)c21` [1-((1S)-1-ethyl-3-hydroxypropyl)-6-chloro-7-iodoimidazo[4,5-b]pyridin-2-ol], for which the “AC1.4 Median” value was 37.2312.

For the molecule `CCC(CC)n1c(O)nc2ncc(Cl)c(/C=N/OC(C)(C)C)c21` [7-[(1E)-2-(tert-butoxy)-2-azavinyl]-6-chloro-1-(ethylpropyl)imidazo[4,5-b]pyridin-2-ol], the “AC1.4 Median” value came out at 1.8945.

For the molecule “6-chloro-1-(ethylpropyl)-7-(hydroxymethyl)imidazo[4,5-b]pyridin-2-ol”, the “AC1.4 Median” value is 42.6538.

For “tert-butyl 4-[6-chloro-1-(ethylpropyl)-2-hydroxyimidazo[4,5-b]pyridin-7-yl]-4-hydroxypiperidinecarboxylate”, the “AC1.4 Median” value turned out to be 28.2335.

`CCC(CC)n1c(O)nc2ncc(Cl)c(C)c21` [6-chloro-1-(ethylpropyl)-7-methylimidazo[4,5-b]pyridin-2-ol]: the “AC1.4 Median” value turned out to be 3.9463.

For `C=Cc1cnc2nc(O)n(C(CC)CC)c2c1` [1-(pentan-3-yl)-6-vinyl-1H-imidazo[4,5-b]pyridin-2-ol], the “AC1.4 Median” value worked out at 3.0420 and the “SKM MF AC1.4 (μM)” value is 3.042^† μM.

Turning to “1-(ethylpropyl)-6-(1-methylvinyl)imidazo[4,5-b]pyridin-2-ol”, the “AC1.4 Median” value worked out at 10.1217.

With “methyl 4-[(2R)-2-(6-chloro-2-hydroxyimidazo[4,5-b]pyridinyl)butyl]piperazinecarboxylate”, the “AC1.4 Median” value is listed as 18.2493.

With `Oc1nc2ncc(Cl)cc2n1CCCC(F)(F)F` [6-chloro-1-[(trifluoromethyl)propyl]imidazo[4,5-b]pyridin-2-ol], the “AC1.4 Median” value is listed as 8.0408.

With `COC(=O)c1c(Cl)cnc2nc(O)[nH]c12` [methyl 6-chloro-2-hydroxyimidazo[4,5-b]pyridine-7-carboxylate], the “AC1.4 Median” value is 1.7026.

In the case of “methyl 1-(ethylpropyl)-2-hydroxyimidazo[4,5-b]pyridine-7-carboxylate”, the “AC1.4 Median” value was 17.1735.

Consider `COCCCCn1c(O)nc2ncc(Cl)cc21` [6-chloro-1-[(methoxymethyl)propyl]imidazo[4,5-b]pyridin-2-ol], for which the “AC1.4 Median” value turned out to be 45.5421.

On to `CC(C)C[C@H](CN1CCOCC1)n1c(O)nc2ncc(Cl)cc21` [1-[(1R)-3-methyl-1-(morpholin-4-ylmethyl)butyl]-6-chloroimidazo[4,5-b]pyridin-2-ol], for which the “AC1.4 Median” value is 5.0392.

For the molecule `CCC(CC)n1c(O)nc2nc(Cl)c(Cl)cc21` [5,6-dichloro-1-(ethylpropyl)imidazo[4,5-b]pyridin-2-ol], the “AC1.4 Median” value came to 8.6854.

For the molecule `Oc1nc2ncc(Cl)cc2n1[C@H](Cc1ccccc1)CN1CCOCC1` [1-[(1R)-2-morpholin-4-yl-1-benzylethyl]-6-chloroimidazo[4,5-b]pyridin-2-ol], the “AC1.4 Median” value is 8.8149.

`C#Cc1cnc2nc(O)n(C(CC)CC)c2c1` [6-ethynyl-1-(pentan-3-yl)-1H-imidazo[4,5-b]pyridin-2-ol]: the “AC1.4 Median” value turned out to be 0.1667 and the “SKM MF AC1.4 (μM)” value is 0.1563^† μM.

As for `CCC(CC)n1c(O)nc2ncc(Cl)cc21` [6-chloro-1-(pentan-3-yl)-1H-imidazo[4,5-b]pyridin-2-ol], the “SKM MF AC1.4” value was 0.82 µM and the “AC1.4 Median” value is 1.6866.
